Assay results: PubChem BioAssay AID248 (DTP/NCI, 2004)
Several values for one entry are separate records, joined by “and”; a condition that tells them apart may be missing. Equal values may be shown once. Toxic doses and inconclusive results are not listed. Rule as the data show it: active = T/C of 150% or more; inactive = T/C below 125%.

System: L1210 leukemia ip in BDF1 mice, survival T/C
Assay: NCI In Vivo Anticancer Drug Screen. Data for tumor model L1210 Leukemia (intraperitoneal) in B6D2F1 (BDF1) mice
Settings: endpoint: mean survival time, higher = longer survival
Method in brief: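 In this screen, tumor-bearing mice given compound are compared to those given vehicle, and their survival values are reported as a treated-to-control quotient.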

[1] = dose: 100.0 mg/kg/injection, schedule: Q01DX009 (ip), vehicle: saline with Tween-80
[2] = dose: 100.0 mg/kg/injection, schedule: Q04DX003 (ip), vehicle: saline
[3] = dose: 200.0 mg/kg/injection, schedule: Q04DX003 (ip), vehicle: saline
[4] = dose: 400.0 mg/kg/injection, schedule: Q04DX003 (ip), vehicle: saline
[5] = dose: 100.0 mg/kg/injection, schedule: Q04DX003 (ip), vehicle: Klucel (hydroxypropylcellulose) (HPC)
[6] = dose: 200.0 mg/kg/injection, schedule: Q04DX003 (ip), vehicle: Klucel (hydroxypropylcellulose) (HPC)
[7] = dose: 400.0 mg/kg/injection, schedule: Q04DX003 (ip), vehicle: Klucel (hydroxypropylcellulose) (HPC)
[8] = dose: 75.0 mg/kg/injection, schedule: Q01DX001 (ip), vehicle: saline
[9] = dose: 100.0 mg/kg/injection, schedule: Q01DX001 (ip), vehicle: saline
[10] = dose: 200.0 mg/kg/injection, schedule: Q01DX001 (ip), vehicle: saline
[11] = dose: 100.0 mg/kg/injection, schedule: Q04DX003 (ip), vehicle: saline with Tween-80

Measured: T/C

CCC1CCN(CC)CC1
inactive: dose: 10.0 mg/kg/injection, schedule: Q01DX001 (ip), vehicle: saline 101 % of control | dose: 10.0 mg/kg/injection, schedule: Q01DX009 (ip), vehicle: saline 92 % of control and 102 % of control | dose: 10.0 mg/kg/injection, schedule: Q04DX002 (ip), vehicle: saline 100 % of control and 109 % of control | dose: 10.0 mg/kg/injection, schedule: Q04DX003 (ip), vehicle: saline 102 % of control | dose: 20.0 mg/kg/injection, schedule: Q01DX001 (ip), vehicle: saline 101 % of control | dose: 20.0 mg/kg/injection, schedule: Q01DX009 (ip), vehicle: saline 101 % of control and 108 % of control | dose: 20.0 mg/kg/injection, schedule: Q04DX002 (ip), vehicle: saline 100 % of control and 117 % of control | dose: 20.0 mg/kg/injection, schedule: Q04DX003 (ip), vehicle: saline 103 % of control | dose: 40.0 mg/kg/injection, schedule: Q01DX001 (ip), vehicle: saline 95 % of control | dose: 40.0 mg/kg/injection, schedule: Q01DX009 (ip), vehicle: saline 94 % of control | dose: 40.0 mg/kg/injection, schedule: Q04DX002 (ip), vehicle: saline 94 % of control and 102 % of control | dose: 40.0 mg/kg/injection, schedule: Q04DX003 (ip), vehicle: saline 102 % of control

O=Cc1[nH]c(=O)[nH]c(=O)c1Br
inactive: dose: 50.0 mg/kg/injection, schedule: Q01DX009 (ip), vehicle: saline with Tween-80 94 % of control | dose: 100.0 mg/kg/injection, schedule: Q01DX001 (ip), vehicle: saline with Tween-80 112 % of control | [1] 98 % of control | dose: 200.0 mg/kg/injection, schedule: Q01DX001 (ip), vehicle: saline with Tween-80 116 % of control

O=P(CCCCl)(OCCCCl)OCCCCl
inactive: [2] 104 % of control | [3] 114 % of control | [4] 96 % of control

O=[N+]([O-])c1ccc(/C=C/C=C/c2ccccc2)cc1Cl
inactive: [5] 102 % of control | [6] 102 % of control | [7] 101 % of control

CC1CC(C)(C)OC(C)(C)O1 (configuration not stated)
inactive: dose: 50.0 mg/kg/injection, schedule: Q01DX009 (ip), vehicle: acetone 90 % of control and 95 % of control | dose: 100.0 mg/kg/injection, schedule: Q01DX009 (ip), vehicle: acetone 97 % of control and 94 % of control | dose: 100.0 mg/kg/injection, schedule: Q04DX002 (ip), vehicle: saline with Tween-80 101 % of control | dose: 100.0 mg/kg/injection, schedule: Q04DX003 (ip), vehicle: acetone 104 % of control and 109 % of control | dose: 200.0 mg/kg/injection, schedule: Q01DX009 (ip), vehicle: acetone 94 % of control and 95 % of control | dose: 200.0 mg/kg/injection, schedule: Q04DX002 (ip), vehicle: saline with Tween-80 93 % of control | dose: 200.0 mg/kg/injection, schedule: Q04DX003 (ip), vehicle: acetone 95 % of control and 104 % of control | dose: 400.0 mg/kg/injection, schedule: Q04DX002 (ip), vehicle: saline with Tween-80 104 % of control | dose: 400.0 mg/kg/injection, schedule: Q04DX003 (ip), vehicle: acetone 94 % of control and 95 % of control

c1ccc(-c2oc3ccc4ccccc4c3c2-c2ccc(OCCN3CCCC3)cc2)cc1
inactive: dose: 10.0 mg/kg/injection, schedule: Q01DX009 (ip), vehicle: Klucel (hydroxypropylcellulose) (HPC) 102 % of control | dose: 20.0 mg/kg/injection, schedule: Q01DX009 (ip), vehicle: Klucel (hydroxypropylcellulose) (HPC) 101 % of control | dose: 40.0 mg/kg/injection, schedule: Q01DX009 (ip), vehicle: Klucel (hydroxypropylcellulose) (HPC) 101 % of control | dose: 80.0 mg/kg/injection, schedule: Q01DX009 (ip), vehicle: Klucel (hydroxypropylcellulose) (HPC) 101 % of control

CC(C)Cc1ccc(C[N+]23CN4CN(CN(C4)C2)C3)cc1
inactive: [8] 100 % of control | dose: 150.0 mg/kg/injection, schedule: Q01DX001 (ip), vehicle: saline 96 % of control | dose: 300.0 mg/kg/injection, schedule: Q01DX001 (ip), vehicle: saline 102 % of control

CC1(C)CS(=O)(=O)CC(C)(C)C(=O)C1=O
inactive: dose: 100.0 mg/kg/injection, schedule: Q01DX001 (ip), vehicle: Klucel (hydroxypropylcellulose) (HPC) 108 % of control

Clc1ccnc2c1ccc1c(Cl)ccnc12
inactive: dose: 50.0 mg/kg/injection, schedule: Q01DX001 (ip), vehicle: carboxymethylcellulose (CMC) 88 % of control

O=C1C=C(Nc2ccc(O)cc2)c2ccccc2C1=O
inactive: dose: 3.12 mg/kg/injection, schedule: Q01DX009 (ip), vehicle: saline 107 % of control | dose: 6.25 mg/kg/injection, schedule: Q01DX009 (ip), vehicle: saline 102 % of control | dose: 12.5 mg/kg/injection, schedule: Q01DX009 (ip), vehicle: saline 103 % of control | dose: 25.0 mg/kg/injection, schedule: Q01DX009 (ip), vehicle: saline 91 % of control | dose: 50.0 mg/kg/injection, schedule: Q04DX003 (ip), vehicle: saline 103 % of control | dose: 75.0 mg/kg/injection, schedule: Q01DX001 (ip), vehicle: carboxymethylcellulose (CMC) 93 % of control | [2] 95 % of control | dose: 150.0 mg/kg/injection, schedule: Q01DX001 (ip), vehicle: carboxymethylcellulose (CMC) 100 % of control | dose: 300.0 mg/kg/injection, schedule: Q01DX001 (ip), vehicle: carboxymethylcellulose (CMC) 90 % of control

COc1ccccc1/C=C(\SS/C(=C/c1ccccc1OC)C(=O)O)C(=O)O
inactive: [9] 120 % of control | [10] 91 % of control

CCCCCCCCCCCCCC[N+]1(C)CCS(=O)CC1 (configuration not stated)
inactive: dose: 25.0 mg/kg/injection, schedule: Q01DX001 (ip), vehicle: saline 102 % of control | dose: 50.0 mg/kg/injection, schedule: Q01DX001 (ip), vehicle: saline 107 % of control | [9] 102 % of control

CCOC(=O)C(=CNc1cnc(SC)[nH]c1=O)C(=O)OCC
inactive: [2] 91 % of control | [3] 93 % of control | [4] 89 % of control

O=C(c1cccc(C(=O)n2c3c(c4ccccc42)CCCC3)c1)n1c2c(c3ccccc31)CCCC2
inactive: [1] 90 % of control | [11] 95 % of control | dose: 200.0 mg/kg/injection, schedule: Q01DX009 (ip), vehicle: saline with Tween-80 90 % of control | dose: 200.0 mg/kg/injection, schedule: Q04DX003 (ip), vehicle: saline with Tween-80 98 % of control | dose: 400.0 mg/kg/injection, schedule: Q01DX009 (ip), vehicle: saline with Tween-80 94 % of control | dose: 400.0 mg/kg/injection, schedule: Q04DX003 (ip), vehicle: saline with Tween-80 88 % of control

Cc1nccn1C
inactive: [9] 101 % of control | [10] 90 % of control | dose: 400.0 mg/kg/injection, schedule: Q01DX001 (ip), vehicle: saline 92 % of control

Oc1ccc2ccccc2c1-c1c(O)ccc2ccccc12
inactive: dose: 12.5 mg/kg/injection, schedule: Q01DX Z (ip), vehicle: other 106 % of control | dose: 25.0 mg/kg/injection, schedule: Q01DX Z (ip), vehicle: other 103 % of control | dose: 50.0 mg/kg/injection, schedule: Q01DX Z (ip), vehicle: other 106 % of control | dose: 100.0 mg/kg/injection, schedule: Q01DX009 (ip), vehicle: Klucel (hydroxypropylcellulose) (HPC) 97 % of control | dose: 100.0 mg/kg/injection, schedule: Q01DX Z (ip), vehicle: other 116 % of control | [5] 111 % of control | dose: 200.0 mg/kg/injection, schedule: Q01DX009 (ip), vehicle: Klucel (hydroxypropylcellulose) (HPC) 94 % of control | [6] 94 % of control | [7] 103 % of control

C[N+](C)(C)c1ccccn1
inactive: [8] 102 % of control

CC(=O)N/N=C/c1ccc([N+](=O)[O-])s1
inactive: [11] 94 % of control
